Reference: ChEMBL document CHEMBL5365532, “Discovery of Triazinone Derivatives as Novel, Specific, and Direct NLRP3 Inflammasome Inhibitors for the Treatment of DSS-Induced Ulcerative Colitis” (J Med Chem, 2023)
Activity calls are given as the source filed them. No cut-off for these calls is given here.

Legend:
[1] = Metabolic stability in human liver microsomes; format: ADME, Microsome
THP-1 [2] = test: Cytotoxicity against PMA-differentiated human THP-1 cells assessed as cell viability at 0.16 to 20 uM incubated for 24 hrs by CCK8 assay; format: toxicity, cell-based; conditions: thp-1, 24 h, dose 0.16-20 µM
BMDM = test: Cytotoxicity against C57BL/6 mouse BMDM cells assessed as cell viability at 0.16 to 20 uM incubated for 24 hrs by CCK8 assay; format: toxicity, cell-based; conditions: dose 0.16-20 µM
THP-1 [3] = test: Effect on NLRP3 protein expression in PMA-differentiated human THP-1 cells at 0.2 to 0.8 uM pretreated with LPS for 3 hrs followed by incubation with compound for 40 mins and later stimulated with nigericin for 35 mins by western blot analysis; format: functional, cell-based; conditions: dose 0.2-0.8 µM, time 75.0 min
THP-1 [4] = test: Effect on ASC protein expression in PMA-differentiated human THP-1 cells at 0.2 to 0.8 uM pretreated with LPS for 3 hrs followed by incubation with compound for 40 mins and later stimulated with nigericin for 35 mins by western blot analysis; format: functional, cell-based; conditions: dose 0.2-0.8 µM, time 75.0 min
THP-1 [5] = test: Effect on pro-IL-1beta protein expression in PMA-differentiated human THP-1 cells at 0.2 to 0.8 uM pretreated with compound for 40 mins followed by LPS challenge for 3 hrs by western blot analysis; format: functional, cell-based; conditions: dose 0.2-0.8 µM, time 220.0 min
[6] = target: NACHT, LRR and PYD domains-containing protein 3 (Mus musculus) (UniProt Q8R4B8); test: Inhibition of NLRP3 inflammasome in C57BL/6 mouse BMDM cells assessed as inhibition of LPS/ATP-induced IL-1 beta secretion at 0.2 to 0.8 uM pretreated with LPS for 3 hrs followed by incubation with compound for 40 mins and later stimulated with ATP for 1 hr by ELISA; format: cell-based; conditions: dose 0.2-0.8 µM, time 100.0 min
Chain of NACHT, LRR and PYD domains-containing protein 3 (Mus musculus) (Q8R4B8 whole entry, the tested form may be a part): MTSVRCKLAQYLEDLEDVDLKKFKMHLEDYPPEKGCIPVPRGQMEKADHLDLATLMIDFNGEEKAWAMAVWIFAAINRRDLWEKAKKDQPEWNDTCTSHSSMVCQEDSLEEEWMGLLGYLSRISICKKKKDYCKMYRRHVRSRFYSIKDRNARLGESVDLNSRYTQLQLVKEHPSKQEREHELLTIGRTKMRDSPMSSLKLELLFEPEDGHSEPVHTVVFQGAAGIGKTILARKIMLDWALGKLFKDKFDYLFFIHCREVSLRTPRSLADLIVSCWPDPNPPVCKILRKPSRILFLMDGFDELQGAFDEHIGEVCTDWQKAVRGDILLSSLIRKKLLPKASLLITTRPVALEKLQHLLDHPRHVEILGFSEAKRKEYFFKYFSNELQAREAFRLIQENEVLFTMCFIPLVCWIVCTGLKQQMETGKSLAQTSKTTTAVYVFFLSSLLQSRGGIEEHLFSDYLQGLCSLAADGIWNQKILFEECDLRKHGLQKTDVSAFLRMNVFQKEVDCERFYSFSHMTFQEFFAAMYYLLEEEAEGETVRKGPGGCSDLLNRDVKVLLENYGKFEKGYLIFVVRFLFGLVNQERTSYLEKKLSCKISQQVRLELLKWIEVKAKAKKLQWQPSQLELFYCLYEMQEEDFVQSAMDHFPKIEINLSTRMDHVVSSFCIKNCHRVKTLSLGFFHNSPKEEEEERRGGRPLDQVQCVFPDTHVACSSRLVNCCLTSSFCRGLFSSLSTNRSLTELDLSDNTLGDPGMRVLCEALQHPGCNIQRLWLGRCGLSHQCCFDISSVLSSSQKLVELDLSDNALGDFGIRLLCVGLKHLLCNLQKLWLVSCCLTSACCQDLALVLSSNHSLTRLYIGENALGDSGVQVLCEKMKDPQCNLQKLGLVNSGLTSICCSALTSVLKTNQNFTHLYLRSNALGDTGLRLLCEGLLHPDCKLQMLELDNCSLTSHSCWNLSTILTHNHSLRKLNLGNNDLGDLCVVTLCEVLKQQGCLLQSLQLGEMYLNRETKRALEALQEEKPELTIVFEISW

[7] = target: NACHT, LRR and PYD domains-containing protein 3 (Mus musculus) (UniProt Q8R4B8); test: Inhibition of NLRP3 inflammasome in C57BL/6 mouse BMDM cells assessed as inhibition of LPS/alum-induced IL-1 beta secretion at 0.2 to 0.8 uM pretreated with LPS for 3 hrs followed by incubation with compound for 40 mins and later stimulated with alum for 4 hrs by ELISA; format: cell-based; conditions: dose 0.2-0.8 µM, time 280.0 min
THP-1 [8] = test: Effect on mitochondrial ROS production in PMA-differentiated human THP-1 cells at 0.2 to 45 uM pretreated with LPS for 3 hrs followed by incubation with compound for 40 mins and later stimulated with nigericin for 35 mins by MitoSOX staining based immunofluorescence analysis; format: functional, cell-based; conditions: dose 0.2-45 µM, time 75.0 min
THP-1 [9] = test: Inhibition of lysosomal damage in PMA-differentiated human THP-1 cells at 0.2 to 45 uM pretreated with LPS for 3 hrs followed by incubation with compound for 40 mins and later stimulated with nigericin for 35 mins by AO staining based analysis; format: functional, cell-based; conditions: dose 0.2-45 µM, time 75.0 min
THP-1 [10] = test: Inhibition of K+ efflux in PMA-differentiated human THP-1 cells at 0.8 to 45 uM pretreated with LPS for 3 hrs followed by incubation with compound for 40 mins and later stimulated with nigericin for 35 mins; format: functional, cell-based; conditions: dose 0.8-45 µM, time 75.0 min
THP-1 [11] = test: Inhibition of Cl- efflux in PMA-differentiated human THP-1 cells at 0.8 to 45 uM pretreated with LPS for 3 hrs followed by incubation with compound for 40 mins and later stimulated with nigericin for 35 mins; format: functional, cell-based; conditions: dose 0.8-45 µM, time 75.0 min
Homo sapiens [12] = species on record: Homo sapiens; test: Binding affinity to N-terminal GST-tagged human NLRP3deltaLRR mutant (1 to 649 residues) expressed in Escherichia coli BL21 assessed as decrease in pronase-mediated protein degradation at 1 to 100 uM incubated with compound for 50 mins followed by pronase digestion for 30 mins by DARTS analysis; conditions: dose 1-100 µM, time 80.0 min
Homo sapiens [13] = species on record: Homo sapiens; test: Binding affinity to N-terminal GST-tagged human NLRP3deltaLRR mutant (1 to 649 residues) expressed in Escherichia coli BL21 assessed as increase in protein thermal stability at 10 to 20 uM at 48 to 72 degC by CETSA analysis; conditions: dose 10-20 µM
[14] = AUC (0 to t) in BALB/c mouse at 10 mg/kg, po; format: ADME, organism-based; design: dose 10 mg/kg, route po; conditions: in vivo
[15] = MRT (0 to t) in BALB/c mouse at 10 mg/kg, po; format: ADME, organism-based; conditions: in vivo
[16] = Tmax in BALB/c mouse at 10 mg/kg, po; format: ADME, organism-based; conditions: in vivo
[17] = Half life in BALB/c mouse at 10 mg/kg, po; format: ADME, organism-based; conditions: in vivo
[18] = Cmax in BALB/c mouse at 10 mg/kg, po; format: ADME, organism-based; design: dose 10 mg/kg, route po; conditions: in vivo
[19] = Apparent clearance in BALB/c mouse at 10 mg/kg, po; format: ADME, organism-based; conditions: in vivo
[20] = Oral bioavailability in BALB/c mouse at 10 mg/kg; format: ADME, organism-based; conditions: in vivo
[21] = AUC (0 to t) in BALB/c mouse at 10 mg/kg, iv; format: ADME, organism-based; design: dose 10 mg/kg, route iv; conditions: in vivo
[22] = Half life in BALB/c mouse at 10 mg/kg, iv; format: ADME, organism-based; conditions: in vivo
Mus musculus [23] = test: Antiinflammatory activity against DSS-induced ulcerative colitis C57BL/6 mouse model assessed as decrease in body weight loss at 10 to 30 mg/kg, ip fed with DSS for 6 days followed by administration with compound for 5 days; format: functional, organism-based; conditions: dose 10-30 mg/kg, time 5.0 day
Mus musculus [24] = test: Antiinflammatory activity against DSS-induced ulcerative colitis C57BL/6 mouse model assessed as decrease in disease activity index at 20 to 30 mg/kg, ip fed with DSS for 6 days followed by administration with compound for 5 days; format: functional, organism-based; conditions: dose 20-30 mg/kg, time 5.0 day
Mus musculus [25] = test: Antiinflammatory activity against DSS-induced ulcerative colitis C57BL/6 mouse model assessed as decrease in colon length shortening at 10 to 30 mg/kg, ip fed with DSS for 6 days followed by administration with compound for 5 days and measured on day 11; format: functional, organism-based; conditions: dose 10-30 mg/kg, time 5.0 day
Mus musculus [26] = test: Antiinflammatory activity against DSS-induced ulcerative colitis C57BL/6 mouse model assessed as decrease in NLRP3 protein expression in colon at 30 mg/kg, ip fed with DSS for 6 days followed by administration with compound for 5 days and measured on day 11 by western blot analysis; format: functional, organism-based; conditions: time 5.0 day
Mus musculus [27] = test: Antiinflammatory activity against DSS-induced ulcerative colitis C57BL/6 mouse model assessed as decrease in IL-1 beta level in colon at 10 to 30 mg/kg, ip fed with DSS for 6 days followed by administration with compound for 5 days and measured on day 11 by ELISA; format: functional, organism-based; conditions: dose 10-30 mg/kg, time 5.0 day
Mus musculus [28] = test: Antiinflammatory activity against DSS-induced ulcerative colitis C57BL/6 mouse model assessed as improvement in crypt deformation in colon at 10 to 30 mg/kg, ip fed with DSS for 6 days followed by administration with compound for 5 days and measured on day 11 by H and E staining based analysis; format: functional, organism-based; conditions: dose 10-30 mg/kg, time 5.0 day
Mus musculus [29] = test: Antiinflammatory activity against DSS-induced ulcerative colitis C57BL/6 mouse model assessed as decrease in goblet cell loss in colon at 10 to 30 mg/kg, ip fed with DSS for 6 days followed by administration with compound for 5 days and measured on day 11 by H and E staining based analysis; format: functional, organism-based; conditions: dose 10-30 mg/kg, time 5.0 day
[30] = target: NACHT, LRR and PYD domains-containing protein 3 (Mus musculus) (UniProt Q8R4B8); test: Inhibition of NLRP3 inflammasome in C57BL/6 mouse BMDM cells assessed as inhibition of IL-1 beta secretion at 0.2 to 0.8 uM pretreated with Pam3CSK4 for 3 hrs followed by incubation with compound for 40 mins and later stimulated with cytosolic LPS for 16 hrs by ELISA; format: cell-based; conditions: dose 0.2-0.8 µM, time 1000.0 min

- half-life [1]: 0.525 h
- inhibition [6]: Active
- inhibition [7]: Active
- Activity (Homo sapiens [12]): Active
- Activity (Homo sapiens [13]): Active
- AUC(0-t) [14]: 1170 ng·h/mL
- MRT last [15]: 3.27 h
- Tmax [16]: 1 h
- half-life [17]: 1.31 h
- Cmax [18]: 437 ng/mL
- CL/F [19]: 144 mL/min/kg
- bioavailability [20]: 22.5%
- AUC(0-t) [21]: 5210 ng·h/mL
- half-life [22]: 2.06 h
- inhibition [30]: Active
SMILES: CC(C)c1nn(Cc2nnc(-c3ccc(C(F)(F)F)nc3Cl)o2)c(=O)c2cc3sc(Cl)cc3n12
- Activity (THP-1 [2]): Non-Toxic
- Activity (BMDM): Non-Toxic
- Activity (THP-1 [3]): inactive
- Activity (THP-1 [4]): inactive
- Activity (THP-1 [5]): inactive
- Activity (THP-1 [8]): inactive
- inhibition (THP-1 [9]): inactive
- inhibition (THP-1 [10]): inactive
- inhibition (THP-1 [11]): inactive
- Activity (Mus musculus [23]): Active
- Activity (Mus musculus [24]): Active
- Activity (Mus musculus [25]): Active
- Activity (Mus musculus [26]): Active
- Activity (Mus musculus [27]): Active
- Activity (Mus musculus [28]): Active
- Activity (Mus musculus [29]): Active
